Four compounds from publication PMC7026418, “The kinase polypharmacology landscape of clinical PARP inhibitors” (Scientific Reports, 2020) can be followed below.

Like-named read-outs stand apart in the source and are kept apart here.

Among the targets are EPHA2 (Homo sapiens, UniProt P29317); HIPK2 (Homo sapiens, UniProt Q9H2X6); KIT(V559D,V654A) (Homo sapiens, UniProt P10721, V559D/V654A); NEK7 (Homo sapiens, UniProt Q8TDX7); PAK1 (Homo sapiens, UniProt Q13153); PIK3CA (Homo sapiens, UniProt P42336); WNK2 (Homo sapiens, UniProt Q9Y3S1).
Common to all, as to test: biochemical
What all share (design): DiscoveRx KINOMEscan active site-directed competition binding; percent of control kinase bound to immobilised ligand

For the next test, the target named is T1, DRAK1 (Homo sapiens, UniProt Q9UEE5).
T1 construct: gene STK17A
T1 sequence (Q9UEE5 1-414): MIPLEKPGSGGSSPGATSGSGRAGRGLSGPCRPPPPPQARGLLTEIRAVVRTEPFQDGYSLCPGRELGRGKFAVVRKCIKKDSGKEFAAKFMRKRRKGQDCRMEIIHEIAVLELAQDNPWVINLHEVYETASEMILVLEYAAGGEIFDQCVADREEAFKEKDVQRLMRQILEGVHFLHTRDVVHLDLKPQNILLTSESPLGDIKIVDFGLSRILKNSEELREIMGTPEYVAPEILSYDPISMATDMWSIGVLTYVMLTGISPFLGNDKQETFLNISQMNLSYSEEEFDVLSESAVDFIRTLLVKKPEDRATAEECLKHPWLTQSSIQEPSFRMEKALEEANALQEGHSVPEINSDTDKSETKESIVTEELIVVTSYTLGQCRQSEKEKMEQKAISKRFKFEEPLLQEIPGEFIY

Another test addresses T2, GRK1 (Homo sapiens, UniProt Q15835).
T2 sequence (Q15835 1-563): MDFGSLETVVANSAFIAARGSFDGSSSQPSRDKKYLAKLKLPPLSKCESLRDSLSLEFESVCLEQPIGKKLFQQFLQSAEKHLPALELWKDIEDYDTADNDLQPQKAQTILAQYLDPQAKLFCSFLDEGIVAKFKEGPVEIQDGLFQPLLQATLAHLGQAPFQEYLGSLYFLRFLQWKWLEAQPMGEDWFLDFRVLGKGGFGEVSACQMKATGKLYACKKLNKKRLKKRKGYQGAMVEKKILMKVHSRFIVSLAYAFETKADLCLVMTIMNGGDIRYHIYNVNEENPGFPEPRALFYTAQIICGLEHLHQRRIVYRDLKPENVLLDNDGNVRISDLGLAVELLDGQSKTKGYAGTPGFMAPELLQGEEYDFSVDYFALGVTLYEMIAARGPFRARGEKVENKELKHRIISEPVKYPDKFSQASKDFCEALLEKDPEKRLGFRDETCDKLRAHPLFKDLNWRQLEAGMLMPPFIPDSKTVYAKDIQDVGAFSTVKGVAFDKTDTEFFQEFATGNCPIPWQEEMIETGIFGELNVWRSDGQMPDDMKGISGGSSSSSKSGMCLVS

For the next test, the target named is T3, MAP4K3 (Homo sapiens, UniProt Q8IVH8).
T3 sequence (Q8IVH8 1-894): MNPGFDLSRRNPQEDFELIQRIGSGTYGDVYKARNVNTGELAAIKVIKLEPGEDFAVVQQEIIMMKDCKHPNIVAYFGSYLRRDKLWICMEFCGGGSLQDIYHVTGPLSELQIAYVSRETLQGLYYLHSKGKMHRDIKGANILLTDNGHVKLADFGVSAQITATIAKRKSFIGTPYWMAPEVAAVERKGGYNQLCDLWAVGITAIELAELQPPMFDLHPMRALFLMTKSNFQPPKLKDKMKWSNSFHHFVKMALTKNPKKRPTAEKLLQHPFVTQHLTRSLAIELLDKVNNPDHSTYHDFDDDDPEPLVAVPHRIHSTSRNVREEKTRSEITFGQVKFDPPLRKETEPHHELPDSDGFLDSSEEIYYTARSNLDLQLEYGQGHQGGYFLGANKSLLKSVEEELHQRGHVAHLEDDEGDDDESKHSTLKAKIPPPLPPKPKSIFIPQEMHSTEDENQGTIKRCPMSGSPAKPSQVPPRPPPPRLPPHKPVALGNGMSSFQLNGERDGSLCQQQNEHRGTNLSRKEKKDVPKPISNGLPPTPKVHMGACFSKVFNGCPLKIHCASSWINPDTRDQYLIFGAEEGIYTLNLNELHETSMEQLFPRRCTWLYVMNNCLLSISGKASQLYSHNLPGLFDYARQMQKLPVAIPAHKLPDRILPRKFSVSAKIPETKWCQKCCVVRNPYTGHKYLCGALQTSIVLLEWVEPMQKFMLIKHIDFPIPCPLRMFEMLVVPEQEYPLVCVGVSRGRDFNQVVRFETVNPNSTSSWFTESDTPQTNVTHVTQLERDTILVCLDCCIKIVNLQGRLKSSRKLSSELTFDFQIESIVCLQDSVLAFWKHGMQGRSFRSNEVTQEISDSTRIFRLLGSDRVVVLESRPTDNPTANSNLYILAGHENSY

Setting [1] is: read-out: Niraparib (MK-4827) / %Ctrl @ 10000nM.
The mark [2] stands for this setting: read-out: Talazoparib (BMN 673) / %Ctrl @ 10000nM.
Where [3] appears, read: read-out: Rucaparib / %Ctrl @ 10000nM, binding competition, % of control.
Where [4] appears, read: read-out: Olaparib / %Ctrl @ 10000nM.

Sequence of EPHA2 (P29317 whole entry): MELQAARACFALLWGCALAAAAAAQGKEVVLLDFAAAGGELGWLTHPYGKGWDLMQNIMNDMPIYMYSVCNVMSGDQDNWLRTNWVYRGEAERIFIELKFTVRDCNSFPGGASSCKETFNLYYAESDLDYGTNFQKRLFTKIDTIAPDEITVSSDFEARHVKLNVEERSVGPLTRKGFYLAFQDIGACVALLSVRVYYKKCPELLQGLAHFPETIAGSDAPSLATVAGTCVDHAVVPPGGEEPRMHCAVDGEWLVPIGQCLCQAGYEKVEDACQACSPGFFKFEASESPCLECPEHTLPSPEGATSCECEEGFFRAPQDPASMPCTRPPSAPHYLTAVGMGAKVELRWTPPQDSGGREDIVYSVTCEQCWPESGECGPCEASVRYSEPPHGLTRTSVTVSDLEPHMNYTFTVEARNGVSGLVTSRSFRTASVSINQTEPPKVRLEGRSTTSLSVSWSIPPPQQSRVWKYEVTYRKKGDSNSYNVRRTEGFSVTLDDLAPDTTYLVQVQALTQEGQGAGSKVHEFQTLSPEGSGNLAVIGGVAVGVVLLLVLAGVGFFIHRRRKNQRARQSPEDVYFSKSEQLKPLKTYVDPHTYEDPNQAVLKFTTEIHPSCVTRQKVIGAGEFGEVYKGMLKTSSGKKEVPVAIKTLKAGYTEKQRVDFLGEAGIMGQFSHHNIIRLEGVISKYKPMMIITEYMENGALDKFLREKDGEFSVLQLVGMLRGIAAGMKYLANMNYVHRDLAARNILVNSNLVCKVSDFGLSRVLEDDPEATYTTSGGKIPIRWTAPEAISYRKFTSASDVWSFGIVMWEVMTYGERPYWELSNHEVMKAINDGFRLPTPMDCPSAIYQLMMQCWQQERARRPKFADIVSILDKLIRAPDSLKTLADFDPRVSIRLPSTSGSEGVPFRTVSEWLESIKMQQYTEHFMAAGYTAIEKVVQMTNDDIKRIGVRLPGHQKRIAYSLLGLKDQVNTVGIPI
Sequence of PAK1 (Q13153 whole entry): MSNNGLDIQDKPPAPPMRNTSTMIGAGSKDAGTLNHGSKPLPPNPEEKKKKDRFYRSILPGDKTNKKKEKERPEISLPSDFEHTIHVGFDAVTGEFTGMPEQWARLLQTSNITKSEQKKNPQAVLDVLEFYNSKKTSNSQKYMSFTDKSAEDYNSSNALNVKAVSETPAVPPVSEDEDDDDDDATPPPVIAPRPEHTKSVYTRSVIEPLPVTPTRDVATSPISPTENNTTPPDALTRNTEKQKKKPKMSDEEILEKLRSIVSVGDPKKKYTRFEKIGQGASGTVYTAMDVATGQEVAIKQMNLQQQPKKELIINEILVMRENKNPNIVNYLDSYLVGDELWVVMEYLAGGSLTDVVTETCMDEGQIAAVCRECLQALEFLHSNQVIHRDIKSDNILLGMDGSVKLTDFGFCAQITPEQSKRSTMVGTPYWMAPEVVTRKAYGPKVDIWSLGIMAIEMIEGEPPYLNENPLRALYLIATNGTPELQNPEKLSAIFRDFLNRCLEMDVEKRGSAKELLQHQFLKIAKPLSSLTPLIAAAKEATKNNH
Sequence of NEK7 (Q8TDX7 whole entry): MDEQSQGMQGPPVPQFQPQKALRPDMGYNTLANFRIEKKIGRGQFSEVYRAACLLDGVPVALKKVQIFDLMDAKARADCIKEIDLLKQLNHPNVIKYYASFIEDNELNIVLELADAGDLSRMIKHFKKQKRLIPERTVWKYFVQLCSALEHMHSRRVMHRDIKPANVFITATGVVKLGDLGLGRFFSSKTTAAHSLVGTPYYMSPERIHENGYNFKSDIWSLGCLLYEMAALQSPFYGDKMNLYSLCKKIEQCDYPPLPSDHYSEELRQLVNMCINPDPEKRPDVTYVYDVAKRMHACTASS
Sequence of HIPK2 (Q9H2X6 whole entry): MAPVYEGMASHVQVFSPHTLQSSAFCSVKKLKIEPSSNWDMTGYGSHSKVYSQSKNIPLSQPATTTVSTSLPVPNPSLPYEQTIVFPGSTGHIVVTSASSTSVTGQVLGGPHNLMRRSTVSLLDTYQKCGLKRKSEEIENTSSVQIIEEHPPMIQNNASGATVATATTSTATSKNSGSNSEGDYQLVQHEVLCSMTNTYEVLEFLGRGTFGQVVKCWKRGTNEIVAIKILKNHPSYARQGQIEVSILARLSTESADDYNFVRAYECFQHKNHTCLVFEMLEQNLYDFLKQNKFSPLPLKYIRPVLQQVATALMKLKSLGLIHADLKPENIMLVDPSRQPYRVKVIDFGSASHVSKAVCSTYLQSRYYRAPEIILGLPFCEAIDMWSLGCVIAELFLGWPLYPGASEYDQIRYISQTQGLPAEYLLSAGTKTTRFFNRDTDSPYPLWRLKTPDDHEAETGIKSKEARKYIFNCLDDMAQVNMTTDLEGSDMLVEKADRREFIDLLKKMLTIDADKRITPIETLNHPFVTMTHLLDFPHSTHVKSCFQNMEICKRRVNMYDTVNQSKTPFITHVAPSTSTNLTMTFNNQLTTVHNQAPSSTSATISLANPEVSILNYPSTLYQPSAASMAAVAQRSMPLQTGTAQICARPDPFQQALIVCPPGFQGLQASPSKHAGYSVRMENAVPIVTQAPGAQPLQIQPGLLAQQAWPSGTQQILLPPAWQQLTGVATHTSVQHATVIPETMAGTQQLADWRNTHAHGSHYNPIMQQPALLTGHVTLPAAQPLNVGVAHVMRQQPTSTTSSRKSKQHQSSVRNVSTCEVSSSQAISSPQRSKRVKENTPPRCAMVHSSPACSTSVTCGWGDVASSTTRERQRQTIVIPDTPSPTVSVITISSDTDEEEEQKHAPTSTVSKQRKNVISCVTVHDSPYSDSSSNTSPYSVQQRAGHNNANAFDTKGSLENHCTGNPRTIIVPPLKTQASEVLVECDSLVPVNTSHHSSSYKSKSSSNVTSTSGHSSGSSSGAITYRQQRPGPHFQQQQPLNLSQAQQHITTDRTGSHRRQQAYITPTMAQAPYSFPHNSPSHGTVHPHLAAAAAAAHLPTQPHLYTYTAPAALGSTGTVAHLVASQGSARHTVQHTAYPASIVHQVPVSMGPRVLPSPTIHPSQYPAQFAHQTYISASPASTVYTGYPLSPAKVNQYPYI
Sequence of KIT(V559D,V654A) (P10721 whole entry V559D/V654A): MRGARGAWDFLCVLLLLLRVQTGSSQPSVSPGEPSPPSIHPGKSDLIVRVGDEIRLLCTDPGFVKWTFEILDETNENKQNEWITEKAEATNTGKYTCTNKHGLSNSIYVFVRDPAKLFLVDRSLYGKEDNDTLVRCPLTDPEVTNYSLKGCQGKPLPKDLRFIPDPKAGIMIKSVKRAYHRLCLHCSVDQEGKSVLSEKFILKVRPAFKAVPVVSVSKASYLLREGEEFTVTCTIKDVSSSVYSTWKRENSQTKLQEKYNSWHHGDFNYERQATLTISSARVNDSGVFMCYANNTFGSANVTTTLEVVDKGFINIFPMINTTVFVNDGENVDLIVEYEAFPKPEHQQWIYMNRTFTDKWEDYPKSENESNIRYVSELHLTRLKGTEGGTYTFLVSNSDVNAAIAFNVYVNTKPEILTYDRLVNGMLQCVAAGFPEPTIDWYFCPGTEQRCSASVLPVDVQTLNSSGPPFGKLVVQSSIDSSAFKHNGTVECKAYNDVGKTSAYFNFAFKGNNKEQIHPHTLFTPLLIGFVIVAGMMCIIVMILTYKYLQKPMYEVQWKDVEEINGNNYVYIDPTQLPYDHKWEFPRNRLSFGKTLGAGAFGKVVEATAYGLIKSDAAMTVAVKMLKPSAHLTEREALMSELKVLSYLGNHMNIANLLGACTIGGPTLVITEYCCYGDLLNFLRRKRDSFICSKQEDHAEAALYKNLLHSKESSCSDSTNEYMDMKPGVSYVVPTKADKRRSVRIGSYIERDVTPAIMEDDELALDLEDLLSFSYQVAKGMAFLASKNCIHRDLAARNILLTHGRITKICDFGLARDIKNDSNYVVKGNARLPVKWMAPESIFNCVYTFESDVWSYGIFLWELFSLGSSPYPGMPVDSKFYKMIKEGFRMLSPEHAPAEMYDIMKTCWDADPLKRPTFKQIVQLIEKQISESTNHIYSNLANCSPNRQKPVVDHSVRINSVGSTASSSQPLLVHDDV
Sequence of PIK3CA (P42336 whole entry): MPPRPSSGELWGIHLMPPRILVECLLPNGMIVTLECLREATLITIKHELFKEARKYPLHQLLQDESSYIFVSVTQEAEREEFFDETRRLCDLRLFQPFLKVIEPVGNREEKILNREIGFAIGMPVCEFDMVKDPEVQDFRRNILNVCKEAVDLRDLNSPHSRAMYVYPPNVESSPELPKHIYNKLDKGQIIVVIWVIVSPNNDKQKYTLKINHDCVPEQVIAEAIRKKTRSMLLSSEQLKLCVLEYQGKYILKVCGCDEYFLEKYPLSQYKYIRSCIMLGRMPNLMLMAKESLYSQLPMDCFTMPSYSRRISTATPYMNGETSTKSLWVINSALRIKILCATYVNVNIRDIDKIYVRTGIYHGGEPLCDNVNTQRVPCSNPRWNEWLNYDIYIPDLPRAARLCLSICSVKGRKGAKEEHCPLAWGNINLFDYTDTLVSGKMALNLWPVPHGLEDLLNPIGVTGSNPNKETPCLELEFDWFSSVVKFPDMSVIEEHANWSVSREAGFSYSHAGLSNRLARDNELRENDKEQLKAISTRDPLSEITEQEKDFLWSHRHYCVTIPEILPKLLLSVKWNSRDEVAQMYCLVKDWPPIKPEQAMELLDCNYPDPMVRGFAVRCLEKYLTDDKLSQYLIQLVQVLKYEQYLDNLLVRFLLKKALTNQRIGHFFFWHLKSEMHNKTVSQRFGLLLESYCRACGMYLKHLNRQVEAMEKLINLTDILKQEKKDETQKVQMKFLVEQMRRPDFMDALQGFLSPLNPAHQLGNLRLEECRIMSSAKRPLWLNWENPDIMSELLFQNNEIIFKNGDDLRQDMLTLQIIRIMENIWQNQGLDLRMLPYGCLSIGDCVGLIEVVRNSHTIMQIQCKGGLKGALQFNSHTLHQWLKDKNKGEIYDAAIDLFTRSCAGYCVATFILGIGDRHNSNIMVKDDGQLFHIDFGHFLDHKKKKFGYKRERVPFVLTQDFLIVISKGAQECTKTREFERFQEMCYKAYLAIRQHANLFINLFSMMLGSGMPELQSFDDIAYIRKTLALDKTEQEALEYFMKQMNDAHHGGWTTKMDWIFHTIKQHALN

With `NC(=O)c1cccc2cn(-c3ccc([C@@H]4CCCNC4)cc3)nc12` [Niraparib], the percent of control binding at 10 µM at DRAK1 (setting [1]) turned out to be 26%; at EPHA2 (setting [1]) it was 94%; at GRK1 (setting [1]), 95%; at HIPK2 (setting [1]), 1.1%; on KIT(V559D,V654A) (setting [1]), 90%; on MAP4K3 (setting [1]), 84%. Further, the percent of control binding at 10 µM was determined as 88% on NEK7 (setting [1]), 86% on PAK1 (setting [1]), 100% at PIK3CA (setting [1]) and 100% at WNK2 (setting [1]).
With `Cn1ncnc1[C@H]1c2n[nH]c(=O)c3cc(F)cc(c23)N[C@@H]1c1ccc(F)cc1` [Talazoparib], the percent of control binding at 10 µM was determined as 100% on DRAK1 (setting [2]); 100% on EPHA2 (setting [2]); 100% at GRK1 (setting [2]); 99% at HIPK2 (setting [2]); 96% on KIT(V559D,V654A) (setting [2]); 100% at MAP4K3 (setting [2]). For the same compound, the percent of control binding at 10 µM at NEK7 (setting [2]) was 80%; on PAK1 (setting [2]), 93%; at PIK3CA (setting [2]), 59%; on WNK2 (setting [2]) it was 100%.
Regarding `CNCc1ccc(-c2[nH]c3cc(F)cc4c3c2CCNC4=O)cc1` [Rucaparib], the percent of control binding at 10 µM on DRAK1 (setting [3]) was found to be 14%; at EPHA2 (setting [3]) it was 100%; at GRK1 (setting [3]) it was 64%; on HIPK2 (setting [3]), 5.1%; on KIT(V559D,V654A) (setting [3]), 92%; on MAP4K3 (setting [3]), 91%. Further, the percent of control binding at 10 µM at NEK7 (setting [3]) was found to be 100%; on PAK1 (setting [3]) it was 75%; on PIK3CA (setting [3]), 91%; at WNK2 (setting [3]), 66%.
`O=C(c1cc(Cc2n[nH]c(=O)c3ccccc23)ccc1F)N1CCN(C(=O)C2CC2)CC1` [Olaparib]: the percent of control binding at 10 µM is 95% at DRAK1 (setting [4]); 97% at EPHA2 (setting [4]); 91% on GRK1 (setting [4]); 95% on HIPK2 (setting [4]); 95% on KIT(V559D,V654A) (setting [4]); 100% at MAP4K3 (setting [4]). In addition, the percent of control binding at 10 µM on NEK7 (setting [4]) amounted to 98%; at PAK1 (setting [4]), 91%; at PIK3CA (setting [4]) it was 87%; at WNK2 (setting [4]), 76%.
